Laboratory results as given in patent US20260053146A1 (priority 2024, published 2026).
In brackets after ≈: the same amount, converted by molar mass.

How the values were obtained:
physchem = conditions: pH 5.6
CLas = assay type: in vivo, Candidatus Liberibacter asiaticus; conditions: CLas-infected citron leaves, petioles soaked with 200 ng in buffer; D. citri nymphs 21 days; versus buffer control

Compound	solubility (physchem) [mg/mL]	MIC (L. crescens BT-1) [µg/mL]	ability of bacteria in treated leaves to infect psyllid nymphs (CLas abundance in adult psyllids, FIG. 4) (CLas)
CC[C@H](C)[C@H](NC(=O)[C@H](CC(=O)O)NC(=O)[C@H](Cc1ccccc1)NC(C)=O)C(=O)N[C@@H](CCSC)C(=O)NCC(=O)N[C@@H](CC(C)C)C(=O)N[C@H](C(=O)N[C@@H](CCCCN)C(=O)N[C@@H](CCCCN)C(=O)N[C@H](C(=O)N[C@@H](C)C(=O)NCC(=O)N[C@@H](C)C(=O)N[C@@H](CC(C)C)C(N)=O)C(C)C)[C@@H](C)CC [EMP-ER, FDIMGLIKKVAGAL]	≥ 10	200 (≈ 0.132 mM)	
Ac-FDVMGIIKKIAGAL-NH2 [EMP-EF, FDVMGIIKKIAGAL]	< 5	200	
Ac-GRILSFIKGLAEHL-NH2 [EMP-OD, GRILSFIKGLAEHL]	> 20	400	
Ac-IDWLKLGKMVMDVL-NH2 [Venom_protein_13b, IDWLKLGKMVMDVL]	< 5	200	
Ac-INLKAIAAFAKKLL-NH2 [Mastoparan-T, INLKAIAAFAKKLL]	> 20	200	
Ac-INLKAIAALARNY-NH2 [Mastoparan-VT7, INLKAIAALARNY]	< 5	>200	
Ac-INLKAIAALVKKLL-NH2 [Mastoparan-VT6]	> 20	100	
Ac-INLKAIAAMAKKLL-NH2 [Mastoparan-like_12d, INLKAIAAMAKKLL]	> 20	400	
Ac-INLKAIAPLAKKLL-NH2 [Mastoparan-VT4, INLKAIAPLAKKLL]	> 20		
Ac-INLKAITALAKKLL-NH2 [Mastoparan-VT3, INLKAITALAKKLL]	≥ 10	400	
Ac-INLLKIAKGIIKSL-NH2 [EMP-AF, INLLKIAKGIIKSL]	> 20	1000	
Ac-INMKASAAVAKKLL-NH2 [MP-VB1t, INMKASAAVAKKLL]	> 20	>1000	
Ac-INWKGIAAMAKKLL-NH2 [Mastoparan-X, INWKGIAAMAKKLL]	> 20	1000	
Ac-INWKGIAAMKKLL-NH2 [Mastoparan-like_12b, INWKGIAAMKKLL]	> 20	>1000	
Ac-INWKKIASIGKEVLKAL-NH2 [PMM, INWKKIASIGKEVLKAL]	> 20	200	
Ac-INWKKIFEKVKNLV-NH2 [PDD-A, INWKKIFEKVKNLV]	> 20	200	
Ac-INWKKIKSIIKAAMN-NH2 [Mastoparan-V1, INWKKIKSIIKAAMN]	> 20	400	
Ac-INWKKIKSLIKAAMS-NH2 [Mastoparan-V2, INWKKIKSLIKAAMS]	> 20	200	
Ac-INWKKMAATALKMI-NH2 [Parapolybia-MP, INWKKMAATALKMI]	> 20	>1000	
Ac-INWLKLGKKILGAI-NH2 [Mastoparan-R1, INWLKLGKKILGAI]	> 20	200	
Ac-INWLKLGKKILGAL-NH2 [PDD-B, INWLKLGKKILGAL]	> 20	1000	
Ac-INWLKLGKKMMSAL-NH2 [MP, INWLKLGKKMMSAL]	> 20	1000	
Ac-INWLKLGKMVIDAL-NH2 [Polybia-MPII, INWLKLGKMVIDAL]	> 20	400	
Ac-INWLKLGKQILGAL-NH2 [Mastoparan-R3, INWLKLGKQILGAL]	> 20	400	
Ac-LKLLGIVKKVLGAI-NH2 [EMP-EM2, LKLLGIVKKVLGAI]	< 5	200	
Ac-LKLMGIVKKVLGAL-NH2 [EMP-EM1, LKLMGIVKKVLGAL]	≥ 10	200	
Ac-LNFKALAALAKKIL-NH2 [Mastoparan-R2, LNFKALAALAKKIL]	> 20	200	
Ac-NLKAIAALAKKLL-NH2 [Mastoparan-VT2, NLKAIAALAKKLL]	> 20	400	
Ac-VIVKAIATLSKKLL-NH2 [Mastoparan-VT5, VIVKAIATLSKKLL]	> 20	>1000	
polymyxin B [PMB, reference compound]			less able to infect the psyllid nymphs
